Data published in patent US5863763A (British Technology Group Ltd., priority 1994, dated 1999).
Square brackets hold non-standard residues; d marks the D form. Ends that are not written are not given here. Peptide text beside a SMILES is read from it. Hyp = O=C(O)[C@@H]1C[C@@H](O)CN1

Legend:
[1] = format: in vitro ADME, Periplaneta americana; conditions: for peptide remaining after incubation with haemolymph: 24 h
Method: Degradation of the Met-callatostatins induced by the haemolymph was assessed by measuring the difference between the amount of added peptide at the start of the incubation period and the total immunoassayable material present at its conclusion. Since the radioimmunoassay (RIA) is carboxy-terminal specific, any degradation at the carboxy-terminus, as for example by metalloendopeptidases able to cleave the Phe-Gly bond (Lamango et al in Insect Biochem. Mol. Biol. 23, 801-808 (1993)), would render the molecule non-immunoreactive. On the other hand partial amino-terminus degradation would result in peptides able to bind to the anti-Met-callatostatin antibodies present in the RIA solution. The mixture remaining after incubation would, therefore, contain all intact molecules and any degradation products with a carboxy-terminus of sufficient length to cross-react within the RIA. Experiments were carried out in an insect Ringer's solution containing Hepes buffer (Holman et al in Insect Biochem 21 107-112 (1991)) at 24° C. and pH 7.0 over several time periods from 15 minutes to 24 hours. In some experiments EDTA (10 mM final concentration) was added with the purpose of inhibiting metalloendopeptidases. For both C. vomitoria and P. americana 1 μl of a […] peptide solution was added to 20 μl of Ringer's solution and 15 μl pooled haemolymph. For C. vomitoria 15 μl was taken from the pooled haemolymph of 10 vitellogenic females, and for P. americana the same volume was obtained from 3-4 ootheca-carrying females. At the conclusion of the incubation period 5 μl of an 8% solution of trichloroacetic acid was added to stop the degradation process. The mixture was centrifuged for 1 minute, an 40 μl of the supernatant was added to 20 μl of water, 0.1% trifluoroacetic acid (TFA) prior to chromatography. Chromatography was carried out on a Kromasil™ (Technicol) C18 250×4.6 mm, 5 μm, 300 Å column with a gradient of 0-30% CH3 CN, 0.1% TFA at a flow rate of 1 ml/min with a rate of change of 1.0%/min. Fractions that were immunoreactive in the Met-callatostatin RIA were rechromatographed on a Delta Pak™ (Waters) C18 250×2.1 mm, 5 μm, 300 Å column with a gradient of 10-30% CH3 CN, 0.1% TFA at a flow rate of 0.2 ml/min with a rate of change of 0.5%/min. Peaks of Met-callatostatin-immunoreactive material were measured by RIA, and amino acid sequences were determined.

[2] = tested on: JH release from CA of B. germanica; assay: Radiochemical assay, inhibition of JH release from isolated corpora allata of B. germanica; format: cell-based, Blattella germanica; conditions: results not shown
Method: (§1) Peptides identified from the extracts were synthesized (Affinity Research Products) and tested in radiochemical assays to determine their effects on the synthesis and release of juvenile hormone bisepoxide from the isolated CA of vitellogenic female C. vomitoria. Similar assays were also carried out on the CA of the cockroaches P. americana (4- to 6-day-old virgin females) and B. germanica (6-day-old virgin females). Details of the methods used have been published previously (C. vomitoria in Duve et al in Proc. Nat'l. Acad. Sci. USA 90 2456-2460 (1993), P. americana in Weaver et al in C Comp. Pharmacol. Toxicol. 107, 119-127 (1994), and Weaver, R. C. in J. Insect Physiol. 37, 111-118 (1991), and B. germanica in Piulachs et al in A Comp. Physiol. 102, 477-480 (1992). For C. vomitoria and P. americana the donor methyl group for incorporation into the JH was provided by L-[methyl-^14 C]methionine, 2.04 GBq/mmol (Amersham International plc), added to methionine-free TCC 199 medium to give a final concentration of 260 μM and for B. germanica by L-[methyl-^3 H]methionine, 3.03 TBq/mmol (Amersham) added to TCC 199 medium containing methionine to achieve a concentration of 100 μM and a final specific activity of 7.4 GBq/mmol.

[3] = tested on: juvenile hormone bisepoxide release from the CA of C. vomitoria; assay: Radiochemical assay, release of juvenile hormone bisepoxide from isolated CA of C. vomitoria; format: cell-based, Calliphora vomitoria; conditions: results not shown
Method: as §1

[4] = tested on: Met-callatostatin antisera; assay: Liquid-phase absorption of Met-callatostatin antisera (ICC control); format: binding, rabbit; conditions: at 50 μM
Description: A variety of tissues including brain, corpora cardiaca-CA-hypocerebral ganglion complex, thoracicoabdominal ganglion, and the entire gut were fixed in aqueous Bouin's fluid, embedded in paraffin, and sectioned at 6 μm (Duve et al in Cell Tissue Res. 251, 399-415 (1988)). The peroxidase-antiperoxidase method of Sternberger (publ. "Immunocytochemistry" 1974)) was used in combination with the three Met-callatostatin antisera, from rabbits D1, D2 and D3, each of which gave essential, the same results. The results presented here were obtained mainly with antiserum from rabbit D1 bleed 5 used at a concentration of 1:2000 for 24 h at 4° C. Other tissues, including the brain, thoracicoabdominal ganglion, and the gut, complete with its neural connections, were fixed in 4% paraformaldehyde for whole-mount studies using the indirect immunofluorescence technique with either UV or confocal laser scanning microscopy. After fixation, tissues were washed in phosphate-buffered saline and permeabilized in methanol in phosphate-buffered saline. The tissues were washed in phosphate-buffered saline containing 0.2% bovine serum albumin and Triton X-100 (PBT buffer). Incubation of tissues with the Met-callatostatin antisera was at 4° C. over 24 h. […]

[5] = tested on: Juvenile Hormone III release from corpora allata of virgin P. americana; assay: Radiochemical assay, inhibition of JH III release from isolated corpora allata of P. americana; format: cell-based, Periplaneta americana; conditions: 4- to 6-day-old virgin females, three hour incubations, read-out: IC50, inhibition of JH release from isolated CA
Method: as §1
For comparison, the activity of Met-callatostatin was also assayed. […]

[6] = tested on: hindgut of C. vomitoria; assay: Inhibition of peristalsis of the hindgut (ileum) of C. vomitoria; parameters: species or system Calliphora vomitoria; conditions: for inhibition of normal peristaltic movements of the ileum: at 1 μm, normal movements 9-10/min
Method: Adult female C. vomitoria were fed sugar, water and meat for 7 days prior to studying the effect of synthetic peptides (Affinity Research Products Ltd, Nottingham) on gut motility. The stage of development of the oocytes of each fly was recorded to provide a physiological base line. The gut and reproductive system were transferred to a 100-μl Sylgard chamber (Sylgard 184, Dow Corning) and bathed in a Calliphora Ringer's solution (Duve et al in Regul. Pept. 35 145-159 (1991)). Peristaltic movements of the ileum and the other forms of contraction in the rest of the gut and reproductive musculature were observed under a microscope. The preparation was superfused with several washes of Ringer's solution, after which peristaltic movements of the ileum were counted over a 2-minute period. The bathing fluid was replaced with fresh Ringer's solution containing the test peptide and the counting repeated. This procedure could be carried out many times for a single preparation.
Peptide solutions were made up in Ringer's solution on the day of the experiments, which were carried out at 22° C. Approximately 50 female flies were used.
Each point represents the mean of 5-16 measurements from a number of different vitellogenic female flies (callatostatin is abbreviated to cast in the figure).

[7] = pooled haemolymph of C. vomitoria in insect Ringer's solution containing Hepes buffer, pH 7.0; conditions: C. vomitoria (10 vitellogenic females), 24° C., up to 24 hours
[8] = pooled haemolymph of P. americana in insect Ringer's solution containing Hepes buffer, pH 7.0; conditions: P. americana (3-4 ootheca-carrying females), 24° C., up to 24 hours
[9] = pooled haemolymph of 10 vitellogenic females in insect Ringer's solution containing Hepes buffer; conditions: C. vomitoria, 24° C., up to 24 hours

| Compound | degradation by enzymes in the haemolymph of cockroaches [1] | IC50 [2] [µM] | cleavage product identified after incubation [1] | degradation in haemolymph [1] | peptide remaining after incubation with haemolymph [1] | effect on the release of juvenile hormone bisepoxide from the CA [3] | abolition of immunostaining by absorption of antisera [4] | IC50 [5] [µM] | inhibition of normal peristaltic movements of the ileum [6] | fragment found [7] | fragment found [8] | fragment found [9] | IC50 ([6]; monophasic dose-response curve) [µM] |
| --- | --- | --- | --- | --- | --- | --- | --- | --- | --- | --- | --- | --- | --- |
| CSCC[C@H](NC(=O)CNC(=O)[C@H](Cc1ccccc1)NC(=O)[C@H](CC(=O)O)NC(=O)[C@H](Cc1ccc(O)cc1)NC(=O)[C@@H]1CCCN1C(=O)[C@@H]1C[C@@H](O)CN1C(=O)CN)C(N)=O [[Hyp^2]Met-callatostatin, Gly-Hyp-Pro-Tyr-Asp-Phe-Gly-Met-NH2] (H-G[Hyp]PYDFGM-NH2) | not |  |  |  |  |  |  |  |  |  |  |  |  |
| CSCC[C@H](NC(=O)CNC(=O)[C@H](Cc1ccccc1)NC(=O)[C@H](CC(=O)O)NC(=O)[C@H](Cc1ccc(O)cc1)NC(=O)[C@@H]1C[C@@H](O)CN1C(=O)[C@@H]1CCCN1C(=O)CN)C(N)=O [[Hyp^3]Met-callatostatin, Gly-Pro-Hyp-Tyr-Asp-Phe-Gly-Met-NH2] (H-GP[Hyp]YDFGM-NH2) | not | 1 | not | more resistant | less than 10% | neither peptide had any effect | abolished the immunostaining | 0.0001 | completely inhibited |  |  |  |  |
| GPPYDFGM-NH2 |  |  |  |  |  |  |  |  |  | oxidised form of the parent compound, 2-hour | Tyr-Asp-Phe-Gly-Met-NH2 (SEQ ID NO:9), 2-hour | oxidised form of the parent compound |  |
| GPPYDFGM-NH2 [Met-callatostatin, Gly-Pro-Pro-Tyr-Asp-Phe-Gly-Met-NH2] | able to degrade | 1 | Tyr-Asp-Phe-Gly-Met-NH2 | degraded to approximately the same extent as in C. vomitoria | less than 10% | neither peptide had any effect | abolished the immunostaining | 0.0001 | completely inhibited |  |  |  | 0.1 |
| GP[Hyp]YDFGM-NH2 |  |  |  |  |  |  |  |  |  | oxidised form of the parent compound, 2-hour |  | oxidised form of the parent compound |  |
